Assay results: patent US7635788B2, “Alpha-amino acid derivatives with antiinflammatory activity” (Italfarmaco SpA, priority 2004, dated 2009)

How the values were obtained:
[1] = tested on: human hepatoma cell line Hep-G2; test: Cytotoxicity towards tumour cells in vitro (Cell Titer 96 formazane colorimetric assay); assay type: cell-based; settings: 48 h, percentage inhibition of the formation of formazane relative to the control
Experimental: The cytotoxicity of some compounds described in the preceding Examples was evaluated in vitro on human hepatoma cell line Hep-G2, by means of a commercial colorimetric method (Cell Titer 96® Aque ous One Solution Cell Proliferation Assay—Promega); the method determines the number of viable cells on the basis of their capacity to metabolise a tetrazolium salt producing formazane. The quantity of formazane produced is proportional to the number of viable cells.
The Hep-G2 cells are distributed 96 well microplates at a density of 4×10^4 cells/well (100 μl), in M199 medium containing 10% foetal bovine serum and supplements (complete medium).
After 24 hours' incubation (37° C., 5% CO2, 90% humidity), the cells are washed once and the medium is replenished with 200 μl of complete medium containing the substances to be tested at the final concentration of 10^−5, 10^−6 and 10^−7M. The test is performed in triplicate.
The plates are incubated for a further 48 h, at the end of which 100 μl of medium are removed and 20 μl/well of staining solution are added in accordance with the supplier's instructions. Optical density (λ=490 nm) is read after 1 hour's incubation at 37° C. using a plate reader (Victor2—Wallac Perkin Elmer).

[2] = tested on: TNFα production by peripheral blood mononucleocytes stimulated with LPS; test: Inhibition of TNFα production by human monocytes stimulated with LPS; assay type: cell-based; settings: LPS 10 ng/ml, 24 hours, ELISA
Experimental: The compounds were dissolved in DMSO at a final concentration of 10 mM.
The solutions for the assay were prepared by diluting the mother solutions in RPMI 1640 with the addition of 1% FCS and 0.01% DMSO and were filtered with 0.2 μm filters.
The peripheral blood mononucleocytes were obtained from blood from healthy donors by separation in a Ficoll-Hypaque gradient [C. G. Figdor, et al. Blood, 1982, 60: 46-53]. The cells were sown in 96-well plates, at a concentration of approx. 500,000 cells per well, suspended in RPMI 1640 containing 1% FCS and were incubated at 37° C. in the presence of different concentrations (from 10^−6 to 10^−11M) of the compounds to be investigated. After 1 hour, LPS was added (at a final concentration of 10 ng/ml; obtained from E. coli 055:B5) and the plates were incubated at 37° C. for a further 24 hours. At the end of this period, the supernatants were collected and used for the determination of TNFα content by means of ELISA (DuoSet ELISA kit; R&D Systems, Minneapolis, Minn., USA).
The concentration of TNFα was calculated using a calibration curve and the IC50 values (the concentration which brings about 50% inhibition of the production of the cytokine) were calculated from the curve obtained by plotting the percentage inhibition values for each individual concentration of the compound under investigation.

O=C(NO)c1ccc(NC(=O)[C@H](Cc2ccc3ccccc3c2)NC(=O)c2ccccc2)cc1 [Example 2g, 4-(2(S)-Benzoylamino-3-naphthalen-2-yl-propionylamino)-N-hydroxy-benzamide]
Cytotoxicity at 10^−5 M [1]: 76.5%
Cytotoxicity at 10^−6 M [1]: 43.2%
IC50 ([2]; Monocyte): 0.0061 µM

CC(=O)N[C@H](Cc1ccc2ccccc2c1)C(=O)Nc1ccc(C(=O)NO)cc1 [Example 2b, 4-(2(R)-Acetylamino-3-naphthalen-2-yl-propionylamino)-N-hydroxy-benzamide]
Cytotoxicity at 10^−5 M [1]: 48.3%
Cytotoxicity at 10^−6 M [1]: 10.6%
IC50 ([2]; Monocyte): 0.0518 µM

CC(=O)N[C@@H](Cc1ccccc1)C(=O)Nc1ccc(C(=O)NO)cc1 [Example 2e, 4-(2(S)-Acetylamino-3-phenyl-propionylamino)-N-hydroxy-benzamide]
Cytotoxicity at 10^−5 M [1]: 17.1%
Cytotoxicity at 10^−6 M [1]: 13.3%
IC50 ([2]; Monocyte): 0.0125 µM

O=C(NO)c1ccc(NC(=O)[C@H](Cc2ccc(C(F)(F)F)cc2)NC(=O)c2ccc3ccccc3c2)cc1 [Example 2w, N-[1(S)-(4-hydroxycarbamoyl-phenylcarbamoyl)-2-(4-trifluoromethyl-phenyl)-ethyl]-amide of naphthalene-2-carboxylic acid]
Cytotoxicity at 10^−5 M [1]: 65.7%
Cytotoxicity at 10^−6 M [1]: 25.3%
IC50 [2]: 0.0237 µM

CC(=O)N[C@@H](Cc1ccc(C(F)(F)F)cc1)C(=O)Nc1ccc(C(=O)NO)cc1 [Example 2j, 4-[2(S)-Acetylamino-3-(4-trifluoromethyl-phenyl)-propionylamino]-N-hydroxy-benzamide]
Cytotoxicity at 10^−5 M [1]: 39.3%
Cytotoxicity at 10^−6 M [1]: 15.8%
IC50 ([2]; Monocyte): 0.0046 µM

O=C(NO)c1ccc(NC(=O)[C@@H](Cc2ccc3ccccc3c2)NC(=O)c2ccc3c(c2)OCO3)cc1 [Example 2r, N-[1(R)-(4-hydroxycarbamoyl-phenylcarbamoyl)-2-naphthalen-2-yl-ethyl]-amide of benzo[1,3]dioxole-5-carboxylic acid]
Cytotoxicity at 10^−5 M [1]: 72.5%
Cytotoxicity at 10^−6 M [1]: 16.6%
IC50 [2]: 0.0017 µM

O=C(NO)c1ccc(NC(=O)[C@@H](Cc2ccc3ccccc3c2)NC(=O)c2cncc(Br)c2)cc1 [Example 2n, 5-Bromo-N-[1(R)-(4-hydroxycarbamoyl-phenylcarbamoyl)-2-naphthalen-2-yl-ethyl]-nicotinamide]
Cytotoxicity at 10^−5 M [1]: 68.2%
Cytotoxicity at 10^−6 M [1]: 15.9%
IC50 ([2]; Monocyte): 0.0068 µM

Nc1ccc(C(=O)N[C@@H](Cc2ccc3ccccc3c2)C(=O)Nc2ccc(C(=O)NO)cc2)cc1 [Example 2m, 4-Amino-N-[1(S)-(4-hydroxycarbamoyl-phenylcarbamoyl)-2-naphthalen-2-yl-ethyl]-benzamide]
Cytotoxicity at 10^−5 M [1]: 72.4%
Cytotoxicity at 10^−6 M [1]: 24.5%
IC50 ([2]; Monocyte): 0.0267 µM

CC(=O)N[C@@H](Cc1ccc(O)cc1)C(=O)Nc1ccc(C(=O)NO)cc1 [Example 2i, 4-[2(S)-Acetylamino-3-(4-hydroxy-phenyl)-propionylamino]-N-hydroxy-benzamide]
Cytotoxicity at 10^−5 M [1]: 12.2%
Cytotoxicity at 10^−6 M [1]: 15.7%
IC50 ([2]; Monocyte): 0.0133 µM

O=C(NO)c1ccc(NC(=O)[C@H](Cc2ccc(-c3ccccc3)cc2)NC(=O)c2ccc3ccccc3c2)cc1 [Example 2y, N-[1(S)-(4-hydroxycarbamoyl-phenylcarbamoyl)-2-(biphenyl-4-yl)-ethyl]-amide of naphthalene-2-carboxylic acid]
Cytotoxicity at 10^−5 M [1]: 73.7%
Cytotoxicity at 10^−6 M [1]: 20.4%
IC50 [2]: 0.0213 µM

O=C(NO)c1ccc(NC(=O)[C@H](Cc2ccccc2)NC(=O)c2ccc3ccccc3c2)cc1 [Example 2x, N-[1(S)-(4-hydroxycarbamoyl-phenylcarbamoyl)-2-phenyl-ethyl]-amide of naphthalene-2-carboxylic acid]
Cytotoxicity at 10^−5 M [1]: 77.3%
Cytotoxicity at 10^−6 M [1]: 15.3%
IC50 [2]: 0.0086 µM

O=C(NO)c1ccc(NC(=O)[C@H](Cc2ccc(-c3ccccc3)cc2)NC(=O)c2ccccc2)cc1 [Example 2f, 4-(2(S)-Benzoylamino-3-biphenyl-4-yl-propionylamino)-N-hydroxy-benzamide]
Cytotoxicity at 10^−5 M [1]: 81.6%
Cytotoxicity at 10^−6 M [1]: 22.7%
IC50 ([2]; Monocyte): 0.0721 µM

O=C(NO)c1ccc(NC(=O)[C@H](Cc2cccc(F)c2)NC(=O)c2ccc3c(c2)OCO3)cc1 [Example 2u, N-[1(S)-(4-hydroxycarbamoyl-phenylcarbamoyl)-2-(3-fluoro-phenyl)-ethyl]-amide of benzo[1,3]dioxole-5-carboxylic acid]
Cytotoxicity at 10^−5 M [1]: 62.9%
Cytotoxicity at 10^−6 M [1]: 12.9%
IC50 [2]: 0.0068 µM

CC(=O)N[C@@H](Cc1ccc2ccccc2c1)C(=O)Nc1ccc(C(=O)NO)cc1 [Example 2d, 4-(2(S)-Acetylamino-3-naphthalen-2-yl-propionylamino)-N-hydroxy-benzamide]
Cytotoxicity at 10^−5 M [1]: 56.2%
Cytotoxicity at 10^−6 M [1]: 9.6%
IC50 ([2]; Monocyte): 0.0044 µM

O=C(NO)c1ccc(NC(=O)[C@H](Cc2ccc(O)cc2)NC(=O)c2ccc3c(c2)OCO3)cc1 [Example 2s, N-[1(S)-(4-hydroxycarbamoyl-phenylcarbamoyl)-2-(4-hydroxy-phenyl)-ethyl]-amide of benzo[1,3]dioxole-5-carboxylic acid]
IC50 [2]: 1 µM

O=C(NO)c1ccc(NC(=O)[C@H](Cc2ccc3ccccc3c2)NC(=O)c2ccc3c(c2)OCO3)cc1 [Example 2t, N-[1(S)-(4-hydroxycarbamoyl-phenylcarbamoyl)-2-naphthalen-2-yl-ethyl]-amide of benzo[1,3]dioxole-5-carboxylic acid]
Cytotoxicity at 10^−5 M [1]: 79.3%
Cytotoxicity at 10^−6 M [1]: 48.5%
IC50 [2]: 0.0048 µM

O=C(NO)c1ccc(NC(=O)[C@H](Cc2ccc(C(F)(F)F)cc2)NC(=O)c2cncc(Br)c2)cc1 [Example 2o, 5-Bromo-N-[1(S)-(4-hydroxycarbamoyl-phenylcarbamoyl)-2-(4-trifluoromethyl-phenyl)-ethyl]-nicotinamide]
Cytotoxicity at 10^−5 M [1]: 72.4%
Cytotoxicity at 10^−6 M [1]: 34.8%
IC50 ([2]; Monocyte): 0.2 µM

Nc1ccc(C(=O)N[C@H](Cc2ccc3ccccc3c2)C(=O)Nc2ccc(C(=O)NO)cc2)cc1 [Example 2l, 4-Amino-N-[1(R)-(4-hydroxycarbamoyl-phenylcarbamoyl)-2-naphthalen-2-yl-ethyl]-benzamide]
Cytotoxicity at 10^−5 M [1]: 61.9%
Cytotoxicity at 10^−6 M [1]: 14.4%
IC50 ([2]; Monocyte): 0.0296 µM

O=C(NO)c1ccc(NC(=O)[C@@H](Cc2ccc3ccccc3c2)NC(=O)c2ccccc2)cc1 [Example 1a, 4-(2(R)-Benzoylamino-3-naphthalen-2-yl-propionylamino)-N-hydroxy-benzamide]
Cytotoxicity at 10^−5 M [1]: 75.2%
Cytotoxicity at 10^−6 M [1]: 22.6%
IC50 ([2]; Monocyte): 0.003 µM

O=C(NO)c1ccc(NC(=O)[C@H](Cc2ccc(-c3ccccc3)cc2)NC(=O)c2cncc(Br)c2)cc1 [Example 2p, 5-Bromo-N-[1(S)-(4-hydroxycarbamoyl-phenylcarbamoyl)-2-biphenyl-4-yl-ethyl]-nicotinamide]
Cytotoxicity at 10^−5 M [1]: 61.7%
Cytotoxicity at 10^−6 M [1]: 10.5%
IC50 ([2]; Monocyte): 0.042 µM

O=C(NO)c1ccc(NC(=O)[C@H](Cc2ccc3ccccc3c2)NC(=O)c2cncc(Br)c2)cc1 [Example 2q, 5-Bromo-N-[1(S)-(4-hydroxycarbamoyl-phenylcarbamoyl)-2-naphthalen-2-yl-ethyl]-nicotinamide]
Cytotoxicity at 10^−5 M [1]: 53.9%
Cytotoxicity at 10^−6 M [1]: 11.7%
IC50 ([2]; Monocyte): 0.0229 µM
